One test addresses T1, Ephrin type-A receptor 1 (Homo sapiens, UniProt P21709).
T1 sequence (P21709 whole entry): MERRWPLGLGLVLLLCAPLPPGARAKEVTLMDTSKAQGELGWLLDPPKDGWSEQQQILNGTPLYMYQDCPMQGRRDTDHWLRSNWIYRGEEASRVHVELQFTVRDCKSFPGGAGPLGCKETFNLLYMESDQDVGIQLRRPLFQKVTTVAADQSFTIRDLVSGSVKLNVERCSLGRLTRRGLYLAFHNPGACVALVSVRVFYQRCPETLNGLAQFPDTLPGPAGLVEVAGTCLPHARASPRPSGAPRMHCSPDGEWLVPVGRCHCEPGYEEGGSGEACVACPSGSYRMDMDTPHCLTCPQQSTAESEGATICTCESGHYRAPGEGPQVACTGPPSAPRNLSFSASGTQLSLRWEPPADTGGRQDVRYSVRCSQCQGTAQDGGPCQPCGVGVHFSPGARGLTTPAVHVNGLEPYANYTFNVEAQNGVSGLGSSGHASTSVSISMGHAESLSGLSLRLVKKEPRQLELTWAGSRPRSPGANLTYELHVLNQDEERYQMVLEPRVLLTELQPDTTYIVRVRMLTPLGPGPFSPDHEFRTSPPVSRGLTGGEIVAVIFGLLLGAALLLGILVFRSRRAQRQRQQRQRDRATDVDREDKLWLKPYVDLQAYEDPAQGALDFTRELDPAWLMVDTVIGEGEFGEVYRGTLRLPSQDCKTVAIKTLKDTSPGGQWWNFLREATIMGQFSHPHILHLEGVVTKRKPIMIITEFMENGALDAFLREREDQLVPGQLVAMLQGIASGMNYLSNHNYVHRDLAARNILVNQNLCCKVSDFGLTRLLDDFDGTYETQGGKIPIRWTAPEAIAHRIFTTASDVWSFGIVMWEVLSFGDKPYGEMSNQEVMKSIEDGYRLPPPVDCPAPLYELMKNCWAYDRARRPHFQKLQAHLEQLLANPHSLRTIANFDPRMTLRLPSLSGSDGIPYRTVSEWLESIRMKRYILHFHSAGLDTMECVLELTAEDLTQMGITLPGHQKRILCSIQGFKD

For test [1], the target named is Serine/threonine-protein kinase MRCK gamma (Homo sapiens, UniProt Q6DT37).
Serine/threonine-protein kinase MRCK gamma, sequence (Q6DT37 whole entry): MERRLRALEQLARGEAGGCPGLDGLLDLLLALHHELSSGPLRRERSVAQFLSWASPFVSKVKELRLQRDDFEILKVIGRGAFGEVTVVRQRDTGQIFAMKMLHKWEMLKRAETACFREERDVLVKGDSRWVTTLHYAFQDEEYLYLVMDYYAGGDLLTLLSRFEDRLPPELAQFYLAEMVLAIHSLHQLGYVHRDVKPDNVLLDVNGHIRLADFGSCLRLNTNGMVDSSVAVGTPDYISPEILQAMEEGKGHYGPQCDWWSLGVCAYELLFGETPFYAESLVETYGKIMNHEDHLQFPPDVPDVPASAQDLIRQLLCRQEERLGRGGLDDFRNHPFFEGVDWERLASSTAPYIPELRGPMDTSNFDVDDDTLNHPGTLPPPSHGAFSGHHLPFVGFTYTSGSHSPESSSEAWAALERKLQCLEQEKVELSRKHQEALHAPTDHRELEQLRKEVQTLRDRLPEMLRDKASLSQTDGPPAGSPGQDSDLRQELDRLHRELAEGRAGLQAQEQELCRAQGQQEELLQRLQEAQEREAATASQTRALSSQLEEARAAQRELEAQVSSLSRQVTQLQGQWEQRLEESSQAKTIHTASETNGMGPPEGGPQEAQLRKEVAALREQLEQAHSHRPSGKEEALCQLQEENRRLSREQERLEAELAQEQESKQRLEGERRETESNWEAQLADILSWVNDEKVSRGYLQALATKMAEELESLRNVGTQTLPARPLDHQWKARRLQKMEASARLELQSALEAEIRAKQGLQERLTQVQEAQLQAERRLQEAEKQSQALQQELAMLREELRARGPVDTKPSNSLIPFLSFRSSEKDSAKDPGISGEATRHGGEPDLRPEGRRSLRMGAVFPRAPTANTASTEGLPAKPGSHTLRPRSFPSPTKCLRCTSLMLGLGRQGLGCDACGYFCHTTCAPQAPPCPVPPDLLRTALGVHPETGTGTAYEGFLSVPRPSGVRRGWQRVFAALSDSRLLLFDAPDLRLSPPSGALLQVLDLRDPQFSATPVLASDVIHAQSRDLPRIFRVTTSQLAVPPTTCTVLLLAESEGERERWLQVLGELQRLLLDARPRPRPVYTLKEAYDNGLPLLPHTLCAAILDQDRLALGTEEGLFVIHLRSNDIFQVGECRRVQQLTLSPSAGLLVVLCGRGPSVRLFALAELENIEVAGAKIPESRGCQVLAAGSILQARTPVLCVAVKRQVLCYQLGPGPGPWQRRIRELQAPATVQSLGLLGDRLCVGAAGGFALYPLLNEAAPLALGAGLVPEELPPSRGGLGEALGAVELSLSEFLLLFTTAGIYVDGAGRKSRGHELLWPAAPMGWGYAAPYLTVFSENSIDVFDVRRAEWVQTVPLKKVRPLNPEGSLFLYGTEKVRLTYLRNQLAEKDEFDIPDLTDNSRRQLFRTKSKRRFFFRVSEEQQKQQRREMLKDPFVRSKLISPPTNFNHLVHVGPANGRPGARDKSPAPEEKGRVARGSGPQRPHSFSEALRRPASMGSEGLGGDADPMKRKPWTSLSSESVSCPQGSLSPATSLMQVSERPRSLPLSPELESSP
In test [2] the target is T2, Thyroid hormone receptor-associated protein 3 (Homo sapiens, UniProt Q9Y2W1).
T2 sequence (Q9Y2W1 whole entry): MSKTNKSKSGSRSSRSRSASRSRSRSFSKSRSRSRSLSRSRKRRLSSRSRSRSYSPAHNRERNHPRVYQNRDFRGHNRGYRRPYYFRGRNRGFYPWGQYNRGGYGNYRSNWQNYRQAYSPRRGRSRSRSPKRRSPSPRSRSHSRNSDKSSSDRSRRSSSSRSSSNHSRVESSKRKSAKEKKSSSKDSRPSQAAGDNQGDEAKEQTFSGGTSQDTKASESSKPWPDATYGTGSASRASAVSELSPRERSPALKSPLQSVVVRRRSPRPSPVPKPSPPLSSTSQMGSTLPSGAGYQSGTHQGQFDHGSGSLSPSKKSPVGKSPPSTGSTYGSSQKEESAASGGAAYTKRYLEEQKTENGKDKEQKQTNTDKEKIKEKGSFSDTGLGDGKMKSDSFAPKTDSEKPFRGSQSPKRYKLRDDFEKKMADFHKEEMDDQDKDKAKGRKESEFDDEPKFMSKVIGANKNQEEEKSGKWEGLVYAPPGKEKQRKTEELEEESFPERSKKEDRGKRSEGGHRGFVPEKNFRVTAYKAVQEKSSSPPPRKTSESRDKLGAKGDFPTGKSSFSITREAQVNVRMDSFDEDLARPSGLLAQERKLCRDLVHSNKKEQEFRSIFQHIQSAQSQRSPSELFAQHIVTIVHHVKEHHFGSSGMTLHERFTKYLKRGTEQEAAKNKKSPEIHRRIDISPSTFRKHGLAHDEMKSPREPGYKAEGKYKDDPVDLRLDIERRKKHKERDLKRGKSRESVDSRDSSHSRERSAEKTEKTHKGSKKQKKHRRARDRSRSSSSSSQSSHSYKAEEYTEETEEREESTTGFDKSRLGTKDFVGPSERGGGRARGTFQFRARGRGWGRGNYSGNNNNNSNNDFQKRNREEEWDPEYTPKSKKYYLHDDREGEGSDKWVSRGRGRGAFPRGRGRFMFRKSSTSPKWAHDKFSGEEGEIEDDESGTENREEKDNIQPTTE

The target of a further test is Misshapen-like kinase 1 (Homo sapiens, UniProt Q8N4C8).
Misshapen-like kinase 1, sequence (Q8N4C8 whole entry): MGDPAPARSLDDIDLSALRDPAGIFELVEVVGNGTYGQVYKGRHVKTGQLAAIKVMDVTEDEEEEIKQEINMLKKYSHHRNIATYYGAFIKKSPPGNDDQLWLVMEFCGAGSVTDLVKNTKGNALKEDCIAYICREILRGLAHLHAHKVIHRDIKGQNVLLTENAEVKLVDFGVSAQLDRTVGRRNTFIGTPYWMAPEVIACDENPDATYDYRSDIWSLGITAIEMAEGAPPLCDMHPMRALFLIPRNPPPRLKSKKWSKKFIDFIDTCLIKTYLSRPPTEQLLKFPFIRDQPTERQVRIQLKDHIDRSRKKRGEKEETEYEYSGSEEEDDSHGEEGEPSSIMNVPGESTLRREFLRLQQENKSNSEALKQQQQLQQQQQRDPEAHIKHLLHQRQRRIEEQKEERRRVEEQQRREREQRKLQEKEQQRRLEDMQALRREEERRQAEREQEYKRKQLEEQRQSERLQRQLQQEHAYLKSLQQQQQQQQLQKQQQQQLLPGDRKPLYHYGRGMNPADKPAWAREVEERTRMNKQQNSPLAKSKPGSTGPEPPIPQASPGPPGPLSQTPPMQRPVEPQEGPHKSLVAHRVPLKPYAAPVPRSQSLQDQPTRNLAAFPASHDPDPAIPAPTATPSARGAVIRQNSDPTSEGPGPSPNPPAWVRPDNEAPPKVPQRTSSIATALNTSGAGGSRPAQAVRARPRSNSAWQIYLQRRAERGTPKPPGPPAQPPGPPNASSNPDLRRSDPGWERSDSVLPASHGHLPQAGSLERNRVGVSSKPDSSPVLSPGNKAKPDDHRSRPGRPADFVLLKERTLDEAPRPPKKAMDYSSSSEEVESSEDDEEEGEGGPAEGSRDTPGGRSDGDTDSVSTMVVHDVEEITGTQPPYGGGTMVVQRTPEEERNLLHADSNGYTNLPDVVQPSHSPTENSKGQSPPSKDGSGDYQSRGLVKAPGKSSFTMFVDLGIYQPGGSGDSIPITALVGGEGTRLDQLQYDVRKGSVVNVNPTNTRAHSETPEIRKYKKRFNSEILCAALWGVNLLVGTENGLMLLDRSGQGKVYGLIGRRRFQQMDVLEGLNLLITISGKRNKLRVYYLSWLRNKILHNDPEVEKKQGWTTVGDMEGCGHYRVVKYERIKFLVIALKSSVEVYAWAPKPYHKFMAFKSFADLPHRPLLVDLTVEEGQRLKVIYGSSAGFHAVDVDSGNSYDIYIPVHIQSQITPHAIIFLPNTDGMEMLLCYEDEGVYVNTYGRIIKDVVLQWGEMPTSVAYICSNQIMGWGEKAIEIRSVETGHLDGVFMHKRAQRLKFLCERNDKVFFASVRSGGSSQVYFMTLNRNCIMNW
Test [3] has as its target T3, Inhibitor of nuclear factor kappa-B kinase subunit epsilon (Homo sapiens, UniProt Q14164).
T3 sequence (Q14164 whole entry): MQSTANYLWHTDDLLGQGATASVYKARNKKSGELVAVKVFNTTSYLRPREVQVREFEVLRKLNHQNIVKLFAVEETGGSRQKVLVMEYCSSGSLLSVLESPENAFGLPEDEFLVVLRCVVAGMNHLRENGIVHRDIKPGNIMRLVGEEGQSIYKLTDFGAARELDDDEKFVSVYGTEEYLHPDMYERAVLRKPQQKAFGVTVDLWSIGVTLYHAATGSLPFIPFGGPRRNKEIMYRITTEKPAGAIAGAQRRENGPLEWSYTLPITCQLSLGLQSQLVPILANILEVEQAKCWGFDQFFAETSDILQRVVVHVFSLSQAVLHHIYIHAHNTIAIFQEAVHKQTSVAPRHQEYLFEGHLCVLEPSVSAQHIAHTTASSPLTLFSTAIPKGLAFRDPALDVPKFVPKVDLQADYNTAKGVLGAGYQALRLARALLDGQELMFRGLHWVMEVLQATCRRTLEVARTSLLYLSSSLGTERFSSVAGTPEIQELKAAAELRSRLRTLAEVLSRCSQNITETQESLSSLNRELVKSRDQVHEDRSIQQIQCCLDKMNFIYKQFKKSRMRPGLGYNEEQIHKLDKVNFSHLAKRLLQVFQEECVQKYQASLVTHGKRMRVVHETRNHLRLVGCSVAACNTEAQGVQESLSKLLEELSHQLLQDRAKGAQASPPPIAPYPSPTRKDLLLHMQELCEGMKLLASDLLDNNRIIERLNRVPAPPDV

Activity calls are given as the source filed them.
Note: in the data inactive means no Kd found up to 30 µM.

Turning to `CC[C@H](Nc1ncnc2[nH]cnc12)c1nc2cccc(F)c2c(=O)n1-c1ccccc1` [IDELALISIB], the Kd (on Ephrin type-A receptor 1; in test [1]; in test [2]; at Misshapen-like kinase 1) was > 30 µM (inactive) in each case.
`C[C@@H](c1ccc2nccn2c1)n1nnc2ncc(-c3cnn(C)c3)nc21` [SAVOLITINIB]: the Kd (in test [2]; on Misshapen-like kinase 1; in test [3]) was > 30 µM (inactive) each time.
As for `CNC(=O)CN1CCC(Oc2cc3c(Nc4cccc(Cl)c4F)ncnc3cc2OC)CC1` [SAPITINIB], the Kd on Ephrin type-A receptor 1 is 0.015 µM; in test [1] it was > 30 µM (inactive); on Misshapen-like kinase 1, > 30 µM (inactive); in test [3], > 30 µM (inactive).
As for `O=C(c1ccc(F)c(F)c1Nc1ccc(I)cc1F)N1CC(O)([C@@H]2CCCCN2)C1` [COBIMETINIB], the Kd (at Ephrin type-A receptor 1; in test [2]; at Misshapen-like kinase 1; in test [3]) was > 30 µM (inactive) throughout.
`CCS(=O)(=O)N1CC(CC#N)(n2cc(-c3ncnc4[nH]ccc34)cn2)C1` [BARICITINIB]: the Kd (at Ephrin type-A receptor 1; in test [1]; in test [2]; at Misshapen-like kinase 1; in test [3]) was > 30 µM (inactive) each time.
Regarding `Cc1ccc(-n2nc(C(C)(C)C)cc2NC(=O)NCc2cc(F)ccc2Oc2ccc3c(cnn3CCO)c2)cc1` [PEXMETINIB], the Kd at Ephrin type-A receptor 1 was 2.64 µM (active); in test [1], > 30 µM (inactive); at Misshapen-like kinase 1, > 30 µM (inactive); in test [3] it was > 30 µM (inactive).
For `COc1ccc(-c2ccc3c(N4CCOC[C@@H]4C)nc(N4CCOC[C@@H]4C)nc3n2)cc1CO` [AZD-8055], the Kd (on Ephrin type-A receptor 1; in test [1]; in test [2]; at Misshapen-like kinase 1; in test [3]) was > 30 µM (inactive) in each case.
Regarding `O=C(O)[C@]1(Cc2cccc(Nc3nccs3)n2)CC[C@@H](Oc2cccc(Cl)c2F)CC1` [MK-5108], the Kd (in test [1]; in test [2]; on Misshapen-like kinase 1; in test [3]) was > 30 µM (inactive) throughout.
As to `COc1cc2nccc(Oc3ccc(NC(=O)Nc4cc(C)on4)c(Cl)c3)c2cc1OC` [TIVOZANIB], the Kd (on Ephrin type-A receptor 1; in test [1]; in test [2]; on Misshapen-like kinase 1; in test [3]) was > 30 µM (inactive) each time.
Take `COc1cc(N2CCC(N3CCN(C)CC3)CC2)ccc1Nc1ncnc(Nc2ccccc2S(=O)(=O)C(C)C)n1` [ASP-3026]: the Kd (in test [1]; in test [2]; at Misshapen-like kinase 1; in test [3]) was > 30 µM (inactive) in each case.
With `CCc1cnn2c(NCc3ccc[n+]([O-])c3)cc(N3CCCC[C@H]3CCO)nc12` [DINACICLIB], the Kd (on Ephrin type-A receptor 1; in test [1]; in test [2]; at Misshapen-like kinase 1) was > 30 µM (inactive) in each case.
Consider `OCCn1cc(-c2cnc3nnn(Cc4ccc5ncccc5c4)c3n2)cn1` [PF-04217903], for which the Kd (at Ephrin type-A receptor 1; in test [1]; in test [2]; on Misshapen-like kinase 1) was > 30 µM (inactive) throughout.
Turning to `CNC(=O)c1ccc(-c2cnc3ncc(Cc4ccc5ncccc5c4)n3n2)cc1F` [CAPMATINIB], the Kd (at Ephrin type-A receptor 1; in test [1]; at Misshapen-like kinase 1; in test [3]) was > 30 µM (inactive) throughout.
Take `CN1CC[C@@H](c2c(O)cc(O)c3c(=O)cc(-c4ccccc4Cl)oc23)[C@@H]1CO`: the Kd (at Ephrin type-A receptor 1; in test [2]; on Misshapen-like kinase 1; in test [3]) was > 30 µM (inactive) each time.
Take `CCN1CCN(Cc2ccc(-c3cc4c(N[C@H](C)c5ccccc5)ncnc4[nH]3)cc2)CC1` [AEE-788]: the Kd (at Ephrin type-A receptor 1; in test [1]; in test [2]; in test [3]) was > 30 µM (inactive) each time.
Consider `O=C(Nc1ccc(-c2ccnc(Nc3ccc(N4CCOCC4)cc3)n2)cc1)C1CCCN1` (configuration not stated) [XL-019], for which the Kd at Ephrin type-A receptor 1 was > 30 µM (inactive); in test [1] it was > 30 µM (inactive); in test [2], > 30 µM (inactive); in test [3], 0.342 µM (active).
For `Cc1cc2c(F)c(Oc3ncnn4cc(OC[C@@H](C)OC(=O)[C@H](C)N)c(C)c34)ccc2[nH]1` [BRIVANIB ALANINATE], the Kd (on Ephrin type-A receptor 1; in test [1]; in test [2]; in test [3]) was > 30 µM (inactive) throughout.
In the case of `CNC(=O)c1ccc(C)c(-n2c(C)cc(OCc3ccc(F)cc3F)c(Br)c2=O)c1` [PH-797804], the Kd (on Ephrin type-A receptor 1; at Misshapen-like kinase 1; in test [3]) was > 30 µM (inactive) each time.
Take `Cc1c(F)cc(C(=O)NC2CC2)cc1-c1ccc(C(=O)NCC(C)(C)C)cn1` [LOSMAPIMOD]: the Kd (on Ephrin type-A receptor 1; in test [1]; on Misshapen-like kinase 1) was > 30 µM (inactive) each time.
With `C=CC(=O)N1CCC(Oc2cc3c(Nc4ccc(Cl)c(Cl)c4F)ncnc3cc2OC)CC1` [POZIOTINIB], the Kd (at Misshapen-like kinase 1; in test [3]) was > 30 µM (inactive) throughout.
For the compound `CO[C@H]1C[C@@H]2CC[C@@H](C)[C@@](O)(O2)C(=O)C(=O)N2CCCC[C@H]2C(=O)O[C@H]([C@H](C)C[C@@H]2CC[C@@H](OCCO)[C@H](OC)C2)CC(=O)[C@H](C)/C=C(\C)[C@@H](O)[C@@H](OC)C(=O)[C@H](C)C[C@H](C)/C=C/C=C/C=C/1C` [EVEROLIMUS], the Kd (on Ephrin type-A receptor 1; in test [1]; in test [2]; in test [3]) was > 30 µM (inactive) each time.

The values above are taken from ChEMBL document CHEMBL3991601, “The target landscape of clinical kinase drugs” (Science, 2017).
